These are literature values, as cited in patent US6517822B1, “Formulations and methods for straightening hair” (priority 1998, dated 2003).

In data set [1] the test system is animal studies.
For data set [2] the following is noted: molarity of 0.1.

Take `CC(N)=O` [Acetamide]: the “tumor finding from oral exposure” value in data set [1] is “liver tumors”.
As for `CC(=O)O` [acetic acid], the electrical conductivity in data set [2] is reported as 4.67 reciprocal ohms (mho). Where the note is “0.01 mole in a liter of water at room temperature”, the “solute ionized at equilibrium” value is recorded as “about 4%”. In addition, the acetic acid ionized (0.1 mol, final volume 1 liter) is recorded as 1.3%.
